Values quoted from earlier work, collected in article PMC9775177, “NLRP3-Inflammasome Inhibition with IZD334 Does Not Reduce Cardiac Damage in a Pig Model of Myocardial Infarction” (Biomedicines, 2022).

Columns and labels:
[1] = system: IR injury in mice; parameters: method as in PMID 30747785; details: cited from earlier work
[2] = system: large animal model of MI; parameters: method as in PMID 27432019; details: cited from earlier work
[3] = large animal model, 7 days following MI

Row | SMILES | infarct development [1] | left ventricular dysfunction [1] | IS (infarct size) [2, 3] | LV function [2, 3] | circulating markers of inflammation ([2]; pigs treated with MCC950)
1 | CS(=O)(=O)CCC#N [OLT1177] | limited infarct development | prevented left ventricular dysfunction |  |  | 
2 | CC(C)(O)c1coc(S(=O)(=O)NC(=O)Nc2c3c(cc4c2CCC4)CCC3)c1 [MCC950] |  |  | dose-dependently reduced IS | improvement in LV function | only modestly lower
